Experimental data published in the SangsterLogP compilation.

SMILES | logP
c1csc(-c2ccc(-c3cccs3)s2)c1 | 5.57
CC#CC#CC#C/C=C\C(=O)OC | 2.42
C/C=C/C#CC#CC#C/C=C/C(Cl)CO (stereo unspecified) | 3.91
C/C=C/C#CC#Cc1ccccc1 | 4.76
C/C=C/C#CC#C/C=C/C(=O)OC | 2.45

The remaining lines, values ahead:

logP | SMILES
2.09 | CC=CC#CC=C1C=CC(=O)O1
4.6 | CC#CC#Cc1ccc(C#CC(Cl)COC(C)=O)s1 (stereo unspecified)
2.48 | OC/C=C/C#CC#Cc1ccccc1
4.91 | CC#CC#CC#Cc1ccccc1
5.15 | C=CC#Cc1ccc(-c2cccs2)s1
3.09 | O=C/C=C/C#CC#Cc1ccccc1
